Source: the supplement of paper PMC10307832

Assays:
Experiment in all cases: relative viability (nuclei count vs DMSO), 5 days (fraction); higher = more cells survive
BAM7 + Crizotinib = compound: CCOC1=CC=CC=C1N=NC2=C(NN(C2=O)C3=NC(=CS3)C4=CC=CC=C4)C [BAM7] + C[C@@H](Oc1cc(-c2cnn(C3CCNCC3)c2)cnc1N)c1c(Cl)ccc(F)c1Cl [Crizotinib] (partner 1 µM)
How it was run: (§1)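 Medians of duplicate plates are given as relative viability. That measure is the nuclei count in treated wells divided by the count in vehicle wells. Counts were taken on 4× images of lung cancer cell lines in 1536-well plates, 5 days after pin-tool dosing the day after seeding with one drug alone or a fixed anchor-drug dose plus five library-drug doses (not always all listed) in √10 steps.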

BAM7 + Luminespib = compound: CCOC1=CC=CC=C1N=NC2=C(NN(C2=O)C3=NC(=CS3)C4=CC=CC=C4)C [BAM7] + CCNC(=O)c1noc(-c2cc(C(C)C)c(O)cc2O)c1-c1ccc(CN2CCOCC2)cc1 [Luminespib] (partner 0.01 µM)
How it was run: as §1

[1] = compound: CCn1c(-c2nonc2N)nc2c(C#CC(C)(C)O)ncc(OC[C@H]3CCCNC3)c21 + COc1cccc2cc(-c3nc([C@H]4CC[C@H](C(=O)O)CC4)n4ncnc(N)c34)[nH]c12 [OSI-027] (partner 0.5 µM)
How it was run: as §1

BAM7 + Pemetrexed = compound: CCOC1=CC=CC=C1N=NC2=C(NN(C2=O)C3=NC(=CS3)C4=CC=CC=C4)C [BAM7] + Nc1nc2[nH]cc(CCc3ccc(C(=O)N[C@@H](CCC(=O)O)C(=O)O)cc3)c2c(=O)[nH]1 [Pemetrexed] (partner 0.2 µM)
How it was run: as §1

Cell Line	relative viability (BAM7 + Crizotinib; first compound 0.5 µM)	relative viability (BAM7 + Crizotinib; first compound 5 µM)	relative viability (BAM7 + Crizotinib; first compound 15.81 µM)	relative viability (BAM7 + Crizotinib; first compound 50 µM)	relative viability (BAM7 + Luminespib; first compound 0.5 µM)	relative viability (BAM7 + Luminespib; first compound 5 µM)	relative viability (BAM7 + Luminespib; first compound 15.81 µM)	relative viability (BAM7 + Luminespib; first compound 50 µM)	relative viability ([1]; first compound 0.01 µM)	relative viability ([1]; first compound 0.03162 µM)	relative viability ([1]; first compound 0.1 µM)	relative viability ([1]; first compound 0.3162 µM)	relative viability ([1]; first compound 1 µM)	relative viability (BAM7 + Pemetrexed; first compound 0.5 µM)	relative viability (BAM7 + Pemetrexed; first compound 5 µM)	relative viability (BAM7 + Pemetrexed; first compound 15.81 µM)	relative viability (BAM7 + Pemetrexed; first compound 50 µM)
LXF-289	0.924	0.876	0.773	0.787	0.756	0.686	0.628	0.665	0.778	0.779	0.808	0.759	0.804	1.01	0.994	0.918	0.865
NCI-H23	0.587	0.535	0.424	0.515	0.218	0.249	0.225	0.206	0.679	0.612	0.606	0.638	0.597	0.832	0.851	0.622	0.709
NCI-H322M	0.859	0.798	0.811	0.641	0.876	0.966	0.903	0.93	0.479	0.496	0.45	0.42	0.483	0.622	0.64	0.645	0.582
NCI-H358	0.76	0.589	0.522	0.52	0.382	0.283	0.376	0.49	0.723	0.822	0.692	0.445	0.373	–	0.177	0.166	0.159
NCI-H441	0.776	0.656	0.706	0.717	0.411	0.326	0.381	0.351	0.675	0.67	0.466	0.469	0.437	0.299	0.252	0.277	0.242
NCI-H460	1.16	1.13	0.743	0.96	0.0323	0.0283	0.029	0.0339	0.579	0.784	0.588	0.535	0.548	0.0639	0.0614	0.0597	0.0573
NCI-H520	0.705	0.747	0.856	0.684	0.207	0.236	0.243	0.222	0.221	0.266	0.208	0.183	0.173	0.696	0.776	0.626	0.569
NCI-H596	0.97	1.03	0.913	0.978	0.848	0.956	0.951	1.18	0.618	0.789	0.663	0.668	0.645	0.544	0.498	0.452	0.559
NCI-H647	0.758	1.25	1.14	1.08	0.241	0.18	0.191	0.146	0.579	0.652	0.615	0.419	0.687	0.168	0.2	0.188	0.17
